Results on two molecules are retold here after PMC6017655, “In Silico and in Vitro-Guided Identification of Inhibitors of Alkylquinolone-Dependent Quorum Sensing in Pseudomonas aeruginosa” (Molecules : A Journal of Synthetic Chemistry and Natural …, 2018).

Structures are written as SMILES. “Also recorded” adds a separate entry of the source. Where two headings read alike, the source gives them in different places.

Series [1] has as its system PqsR (pqsA promoter, PAO1-L mCTX::PpqsA-lux). The experiment in a line: Whole cell biosensor reporter assay, PAO1-L mCTX::PpqsA-lux. Format: cell-based, Pseudomonas aeruginosa. Conditions: for IC50: Mean ± SD, n = 3; for activity at 10 µM: PAO1, read-out: PAO1-L Remaining Activity %; for PqsR inhibitory activity (in words), PAO1-L: screen at 10 µM / dose-response. Here is the method: (§1) To determine the ability of the quinolines to inhibit PqsR functionality, the P. aeruginosa biosensor strains, PAO1-L and PA14, incorporating a chromosomal mCTX::PpqsA-lux transcriptional fusion, were used. These report on the activation of the pqsA promoter, regulated by PqsR [25]. PAO1-L and PA14 were chosen because they are genetically amenable and belong to the two major P. aeruginosa genomic groups. The quinolone compounds were incubated with the corresponding strain, and luminescence and optical density readings were recorded to monitor the effect of the quinolines on PqsR activity and bacterial growth, respectively. The compounds were screened at 10 µM concentration, and the activity was compared to a control of DMSO (0.1%) (Figure 3a). To be considered a hit, a threshold of at least 50% inhibition of the test compound, relative to the negative control had to be reached, without affecting bacterial growth. […] Concentration-response experiments were then carried out to determine the IC50 values (Figure 3b,c), which are summarised in Table 1.
Strains PA14 mCTX::PpqsA-lux and PAO1-L mCTX::PpqsA-lux were constructed using plasmid mini-CTX::PpqsA-lux, as previously described, and the assay was performed according to a published protocol. For screening, the compounds were tested at a concentration of 10 µM, which was prepared from a 10 mM stock, in DMSO.
A general note: Reporter assays use an easily measured gene product as a stand-in for the process of interest.

A further series concerns PAO1-L. Kind of series: Bacterial growth (optical density) in reporter assay, PAO1-L. Format: cell-based, Pseudomonas aeruginosa. Conditions: compound vs DMSO control. Here is the method:
as §1
Figure 3 Whole bacterial cell-based P. aeruginosa compound screen for both PqsR and growth inhibition (a) Activity against PA14 (green) and PAO1-L (purple) PpqsA-lux reporter strains at 10 µM test compound; (b) and (c) Dose-response curves for active compounds against PA14 (b) and PAO1-L (c); (d) and (e) growth curves for PA14 (d) and PAO1-L (e) in the presence of compound or DMSO control.

Series [2] relates to pyocyanin production by PA14. The experiment in a line: Pyocyanin production assay, PA14. Format: cell-based, Pseudomonas aeruginosa. Conditions: 3x IC50, 16 h. Here is the method:
(§2) Pyocyanin is a blue redox-active toxin, produced by P. aeruginosa and strongly-controlled by PqsR via the regulation of pqsE expression. Pyocyanin is essential for the pathogenicity of P. aeruginosa in lung infections. The effect of the PqsR inhibitors on pyocyanin production by PA14 and PAO1-L strains, when grown in the presence or absence of the inhibitors, was investigated (Figure 4).
(§3) The experiment was performed following a published protocol with minor modifications. P. aeruginosa strains were cultured into 5 mL fresh medium overnight. […] Cells were centrifuged at 10,000 RCF for 10 min (Allegra 64R centrifuge, Beckman Coulter, High Wycombe, UK) and the supernatant was transferred to 15 mL falcon tubes with a HSW 10 mL Soft-Ject Syringe and a […] Sartorius syringe-driven filter (Fisher Brand, Loughborough, UK). Pyocyanin pigment was extracted into chloroform by mixing 7.5 mL of supernatant with 4.5 mL of chloroform. Pyocyanin was further extracted into 1.5 mL of 0.2 M HCL, which gave a pink/red solution, and the absorbance was measured at 520 nm.

The test system of series [3] is pyocyanin production by PAO1-L. Kind of series: Pyocyanin production assay, PAO1-L. Particulars: 3x IC50, 16 h. Format: cell-based, Pseudomonas aeruginosa. Here is the method:
as §2, §3

Another series concerns AQ production in PAO1-L. Kind of series: Alkylquinolone (HHQ, PQS, HQNO) production by LC-MS/MS, PAO1-L. Format: cell-based, Pseudomonas aeruginosa. Conditions: 3x IC50, 16 h, culture supernatant. On the procedure:
HQNO, can protect Staphylococcus aureus from vancomycin [31] and contributes to the environmental competitiveness of P. aeruginosa, through its activity as a potent inhibitor of the cytochrome bc1 complex. […] LC-MS/MS was used to quantify the major AQs HHQ, PQS and HQNO after incubation of the P. aeruginosa strains with the hit compounds, for 16 h. The assay was performed using both PAO1-L and PA14 strains which were treated with PqsR antagonists at concentrations three-fold higher than their IC50 values. The results obtained depended on the inhibitor and strain tested (Figure 5).
For each test sample, 100 µL of sterile filtered supernatant (the same preparation as for pyocyanin) was spiked with 10 µL of an internal standard solution (10 µM d4-PQS in MeOH), and diluted with water, to a total volume of 500 µL. Samples were then extracted three times with an 0.5 mL aliquot of ethyl acetate, vortex mixing the aqueous/organic mix for 2 min, then removing the organic phase once the layers had successfully partitioned. For each sample, the combined organic extracts were dried under vacuum and re-dissolved in 100 µL MeOH prior to analysis. For the LC-MS/MS analysis of supernatant extracts, the chromatography was achieved using a Shimadzu series 10AD VP LC system (Columbia, MD, USA). The LC column, maintained at 40 °C, was a Phenomenex Gemini C18 (3.0 µm, 100 × 3.0 mm) (Macclesfield, Cheshire, UK) with an appropriate guard column. Mobile phase A was 0.1% (v/v) formic acid in water containing 2 mM 2-picolinic acid, and mobile phase B 0.1% (v/v) formic acid in methanol. The flow rate throughout the chromatographic separation was 450 µL/min. After an injection of a 2 µL/sample, a binary gradient, beginning initially at 30% B, increased linearly to 99% B over 5 min. The composition remained at 99% B for 3 min, decreased to 30% B over 1 min, and stayed at this composition for 4 min, to allow for column equilibration. […] Where chromatographic peaks for HHQ, HQNO and PQS were detected, a peak area was determined, and analyte peak area/internal standard peak area calculated.

The next series is described as follows: Plasma stability, rat. Format: in vitro ADME. Conditions: 37 °C, up to 2 h, read-out: Plasma Stability Rat t1/2. Here is the method:
Dilutions of a 10 mM test compound DMSO stock solution were prepared so that the final DMSO concentration was 1% v/v and the final test compound concentration tested was 1 µM. Following the addition of the test compound to plasma, the samples were pre-incubated for 10 min prior to the start of the incubation by the addition of the test compound. The test compound was incubated (n = 2; 1 µM final concentration) at 37 °C with plasma for up to 2 h. Aliquots were sampled at several time points and mixed with acetonitrile (containing internal standard) to terminate the reaction and precipitate the proteins. All the samples were mixed, centrifuged and the supernatants analysed by UPLC-MSMS. Parent disappearance and half-life (t 1/2) values were determined from the slope of the parent depletion curve. Control compounds (imidapril, enalapril, tenofovir and/or propantheline), were respectively included.

[4] abbreviates: Pseudomonas aeruginosa, PAO1, read-out: IC50 PAO1-L, PpqsA-lux reporter.
Where [5] appears, read: strain not singled out in the sentence.

A word on the IC50: it is the concentration needed to halve the response being measured. As to `CC(=O)N1N=C(c2ccccc2)CC1c1cccc(Nc2ccnc3cc(Cl)ccc23)c1` (stereo not shown) [IIa], the IC50 is 1500 nM in series [1] (setting [4]) and 1600 ± 290 nM in series [1] (read-out: IC50 PAO1-L, PpqsA-lux reporter). Further, in series [1] (Pseudomonas aeruginosa), the activity at 10 µM is 31.6 ± 6.6%. Besides, the “PqsR inhibitory activity (in words), PAO1-L” value in series [1] is given as “strong PqsR inhibitory activity”. For the same molecule, the “Effect on bacterial growth, PAO1-L” value in the series on PAO1-L is given as “without interfering with bacterial growth”. Further, the “Effect on pyocyanin production (in words), PA14” value in series [2] is “weakest effect”. In series [2] (setting [5]), the “Reduction of pyocyanin production, PA14” value was “over 25%”. Besides, in series [3], the “Effect on pyocyanin production (in words), PAO1-L” value is listed as “weakest effect”. The “Reduction of pyocyanin production, PAO1-L” value in series [3] (setting [5]) is listed as “over 25%”. Besides, the “Inhibition of AQ production (in words), PAO1-L” value with AQ production in PAO1-L is “moderate effect”. For the same molecule, the half-life at 1 µM in “Plasma stability, rat” was over 4 h.

For the molecule `O=CN1N=C(c2ccccc2)CC1c1cccc(Nc2ccnc3cc(Cl)ccc23)c1` (stereo not shown) [Ia], the half-maximal inhibitory concentration (IC50) in series [1] (setting [4]) is 12400 ± 1790 nM. Besides, in series [1] (Pseudomonas aeruginosa), the activity at 10 µM was 25.8 ± 1.17%. In addition, the “PqsR inhibitory activity (in words), PAO1-L” value in series [1] is “strong PqsR inhibitory activity; also recorded: modest activity”. Also, the “Effect on bacterial growth, PAO1-L” value in the series with PAO1-L is on record as “without interfering with bacterial growth”. The “Effect on pyocyanin production (in words), PA14” value in series [2] is “strongest effect”. Moreover, in series [3], the “Effect on pyocyanin production (in words), PAO1-L” value is on record as “strongest effect”. For the same molecule, the “Inhibition of AQ production (in words), PAO1-L” value in the series with AQ production in PAO1-L is “strongly-inhibited AQ production”. The half-life at 1 µM in “Plasma stability, rat” was over 4 h.
